This note sets out measurements from patent US7311893B2, “Amyloid targeting imaging agents and uses thereof” (Neurochem (International) Limited, priority 2000, dated 2007).

The test system of this experiment is insoluble amyloid or amyloid plaques. The experiment is described as follows: binding data for amyloid-targeting moieties (FIGS. 1 and 2). Conditions: insoluble vs soluble amyloid; data in FIGS. 1 and 2.
As for `Cc1ccc2nc(-c3ccc(N=NNc4ccc(-c5nc6ccc(C)c(S(=O)(=O)[O-])c6s5)cc4)cc3)sc2c1S(=O)(=O)[O-].[Na+].[Na+]` [Thiazole yellow G, reference compound], the “binding to insoluble amyloid or amyloid plaques in preference to soluble amyloid” value (from here on “binding”) is given as “bind insoluble amyloid or amyloid plaques in preference to soluble amyloid”.
With `O=S(=O)(O)CCCNC1(CO)CCCC1` [3-(1-hydroxymethyl-1-cyclopentyl)amino-1-propane sulfonic acid], the “binding” value is “bind insoluble amyloid or amyloid plaques in preference to soluble amyloid”.
As for `O=S(=O)(O)CCCCN1CCCCC1` [4-(1-piperidinyl)-1-butanesulfonic acid], the “binding” value was “bind insoluble amyloid or amyloid plaques in preference to soluble amyloid”.
For `NCCCC[C@H](NCCCS(=O)(=O)O)C(=O)O` [alpha-N-(3-sulfopropyl)-L-lysine], the “binding” value is given as “bind insoluble amyloid or amyloid plaques in preference to soluble amyloid”.
Consider `O=S(=O)(O)CCCNCCCCCCO` [3-(6-hydroxy-1-hexyl)amino-1-propane sulfonic acid], for which the “binding” value is given as “bind insoluble amyloid or amyloid plaques in preference to soluble amyloid”.
As for `O=S(=O)(O)CCCN1CC=CCC1` [3-[1-(1,2,3,6-tetrahydropyridinyl)]-1-propanesulfonic acid], the “binding” value is “bind insoluble amyloid or amyloid plaques in preference to soluble amyloid”.
With `O=S(=O)(O)NCCCO` [3-hydroxypropylsulfamic acid], the “binding” value is recorded as “bind insoluble amyloid or amyloid plaques in preference to soluble amyloid”.
On to 1,6-hexanedisulfonate, for which the “binding” value was “bind insoluble amyloid or amyloid plaques in preference to soluble amyloid”.
For `O=S(=O)(O)CCCN1CCN(CCCS(=O)(=O)O)CC1` [1,4-piperazinebis(propanesulfonic acid)] the value was “bind insoluble amyloid or amyloid plaques in preference to soluble amyloid”; for `COC(=O)CCN1CCc2ccccc2C1.Cl` [methyl 2-(2-carboxyethyl)-1,2,3,4-tetrahydroisoquinoline hydrochloride], “bind insoluble amyloid or amyloid plaques in preference to soluble amyloid”.
